The text below walks through data of patent US20250282770A1, “BIOLUMINESCENT PROBES TO TRACK STEM CELLS IN VIVO” (THE BOARD OF TRUSTEES OF THE UNIVERSITY OF ILLINOIS, priority 2024, published 2025).

Structures are written as SMILES.

One test concerns the target T1, ALDH1A1 (Homo sapiens, UniProt P00352).
T1 construct: inferred from Ni-NTA purification; made in house; host or cells: E. coli BL21(DE3)
T1 sequence (P00352 1-501): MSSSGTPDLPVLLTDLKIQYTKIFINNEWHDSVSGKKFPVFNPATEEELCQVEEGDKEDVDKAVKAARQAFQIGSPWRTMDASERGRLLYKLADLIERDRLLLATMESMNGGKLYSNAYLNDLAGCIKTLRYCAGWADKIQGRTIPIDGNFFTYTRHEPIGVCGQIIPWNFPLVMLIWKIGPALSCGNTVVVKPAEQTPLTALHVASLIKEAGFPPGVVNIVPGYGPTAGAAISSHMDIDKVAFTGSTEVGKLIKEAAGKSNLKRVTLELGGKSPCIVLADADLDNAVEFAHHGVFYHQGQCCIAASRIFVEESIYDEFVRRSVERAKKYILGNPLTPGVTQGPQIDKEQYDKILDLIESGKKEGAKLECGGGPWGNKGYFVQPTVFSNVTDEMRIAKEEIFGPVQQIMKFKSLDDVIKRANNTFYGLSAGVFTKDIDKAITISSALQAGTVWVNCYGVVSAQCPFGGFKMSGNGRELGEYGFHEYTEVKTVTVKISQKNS
As to the kind of experiment: AlDeLuc isoform selectivity assay. It counts as biochemical. The settings on record: 2 μM, pre-activated with HCl, 60 min room temperature. As for the experimental part: (§1) Expression and Purification of ALDH Expression constructs for recombinant human ALDH1A1, ALDH1A2, ALDH1A3, and ALDH2, ALDH3A1, ALDH4A1, and ALDH5A1 were generously provided by Prof. Daria Mochly-Rosen (Stanford, Chemical and Systems Biology). E. coli BL21(DE3) cells with transformed with each of the above constructs. Colonies were selected from an agar plate containing […] ampicillin and grown overnight (37° C., 220 rpm) in LB media containing […] ampicillin. The overnight culture (10 mL) was inoculated into 1000 mL LB supplemented with […] ampicillin. When the O.D. reached ˜0.5, IPTG was added to a final concentration of 1 mM and incubated overnight (30° C., 200 rpm, 18 h). The cells were harvested via centrifugation (4° C., 4,000 rpm, 90 min) and the cell pellets were stored at −80° C. until purification.
(§2) ALDH Isoform Activity Determination. The activity of each isoform of ALDH was confirmed by monitoring the production of NADH at 340 nm when incubated with the most used substrate for that enzyme (i.e., benzaldehyde for ALDH3A1 and propionaldehyde for all other isoforms). Each isoform was diluted with 50 mM triethanolamine (TEA, pH 7.4) to a final concentration of 0.5 μM and placed in a 1 mL quartz cuvette. Prior to measurement, NAD^+ was added to a final concentration of 2.5 mM and the preferred substrate was added to a final concentration of 1 mM. Absorbance spectra was taken from 300 to 500 nm every 30 seconds for 15 minutes. Activity for each enzyme was calculated from the slope of absorbance increase at 340 nm over time.
(§3) AlDeLuc Isoform Selectivity Assay. Activation of AlDeLuc was assessed using the necessary amount of enzyme that gave the activity of 0.5 nmol of substrate turned over/minute. All enzymatic reactions were performed in 50 mM triethanolamine (TEA) buffer (pH 7.4) with 2.5 mM NAD^+. To prepare the probe solution, AlDeLuc was dissolved in DMSO and incubated with 1 M HCl. After an hour, this solution was neutralized with 1 M NaOH, and diluted with PBS. To a clear 24-well plate, TEA buffer, NAD^+, the ALDH isoform, and then AlDeLuc (2 μM) were added sequentially to a final volume of 1 mL. After an hour incubation at room temperature, ATP-MgSO4 (45 μL, prepared by mixing 17.78 mM ATP-Mg and 35.56 mM MgSO4 in a 1:1 ratio in PBS buffer) and luciferase (5 μL, 1 mg/mL in PBS containing 10% glycerol) were added to initiate bioluminescence production. The wells were immediately imaged using the IVIS imaging system in open mode. ROIs were drawn around each well and the signal intensity was quantified using the Living Image Analysis. The signal enhancement was normalized relative to the ALDH2 isoform.

A further test has as its target T2, ALDH1A2 (Homo sapiens, UniProt O94788).
T2 construct: inferred from Ni-NTA purification; made in house; host or cells: E. coli BL21(DE3)
In words: AlDeLuc isoform selectivity assay. Format: biochemical. Particulars: 2 μM, pre-activated with HCl, 60 min room temperature. The protocol: as §1, §2, §3

The target in a further test is T3, ALDH1A3 (Homo sapiens, UniProt P47895).
T3 construct: inferred from Ni-NTA purification; made in house; host or cells: E. coli BL21(DE3)
T3 sequence (P47895 whole entry): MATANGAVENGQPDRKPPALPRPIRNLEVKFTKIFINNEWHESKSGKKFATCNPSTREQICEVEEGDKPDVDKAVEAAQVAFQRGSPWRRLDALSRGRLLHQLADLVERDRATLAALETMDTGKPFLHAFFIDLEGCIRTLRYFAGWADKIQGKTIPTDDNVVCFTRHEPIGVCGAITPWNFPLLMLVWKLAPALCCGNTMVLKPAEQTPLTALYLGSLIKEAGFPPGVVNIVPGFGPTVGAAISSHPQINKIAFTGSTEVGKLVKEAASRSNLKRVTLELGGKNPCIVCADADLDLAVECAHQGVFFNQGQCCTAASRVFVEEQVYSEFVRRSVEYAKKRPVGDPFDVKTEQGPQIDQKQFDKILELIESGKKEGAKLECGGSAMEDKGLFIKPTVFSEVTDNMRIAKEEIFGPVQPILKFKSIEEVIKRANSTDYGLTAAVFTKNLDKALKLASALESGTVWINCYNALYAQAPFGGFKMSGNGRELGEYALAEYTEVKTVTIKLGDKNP
In words: AlDeLuc isoform selectivity assay. Format: biochemical. Particulars: 2 μM, pre-activated with HCl, 60 min room temperature. The protocol: as §1, §2, §3

The next test has as its target T4, ALDH2 (Homo sapiens, UniProt P05091).
T4 construct: inferred from Ni-NTA purification; made in house; host or cells: E. coli BL21(DE3)
As to the kind of experiment: AlDeLuc isoform selectivity assay. It counts as biochemical. The settings on record: 2 μM, pre-activated with HCl, 60 min room temperature. The protocol:
as §1, §2, §3

The target in another test is T5, ALDH3A1 (Homo sapiens, UniProt P30838).
T5 construct: inferred from Ni-NTA purification; made in house; host or cells: E. coli BL21(DE3)
T5 sequence (P30838 whole entry): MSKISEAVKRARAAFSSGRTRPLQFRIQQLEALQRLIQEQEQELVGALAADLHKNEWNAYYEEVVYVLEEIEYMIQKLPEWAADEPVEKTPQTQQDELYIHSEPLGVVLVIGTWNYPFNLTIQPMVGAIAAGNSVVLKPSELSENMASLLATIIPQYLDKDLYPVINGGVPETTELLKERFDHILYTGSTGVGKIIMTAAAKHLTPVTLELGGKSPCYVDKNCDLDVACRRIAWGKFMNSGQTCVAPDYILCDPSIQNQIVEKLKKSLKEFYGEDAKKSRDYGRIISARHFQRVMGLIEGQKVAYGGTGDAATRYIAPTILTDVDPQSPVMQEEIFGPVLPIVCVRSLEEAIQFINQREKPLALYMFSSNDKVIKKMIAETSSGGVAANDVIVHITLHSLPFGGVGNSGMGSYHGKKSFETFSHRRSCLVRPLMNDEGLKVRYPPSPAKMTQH
As to the kind of experiment: AlDeLuc isoform selectivity assay. Format: biochemical. The settings on record: 2 μM, pre-activated with HCl, 60 min room temperature. The protocol:
as §1, §2, §3

For the next test, the target named is T6, ALDH4A1 (Homo sapiens, UniProt P30038).
T6 construct: inferred from Ni-NTA purification; made in house; host or cells: E. coli BL21(DE3)
T6 sequence (P30038 25-563): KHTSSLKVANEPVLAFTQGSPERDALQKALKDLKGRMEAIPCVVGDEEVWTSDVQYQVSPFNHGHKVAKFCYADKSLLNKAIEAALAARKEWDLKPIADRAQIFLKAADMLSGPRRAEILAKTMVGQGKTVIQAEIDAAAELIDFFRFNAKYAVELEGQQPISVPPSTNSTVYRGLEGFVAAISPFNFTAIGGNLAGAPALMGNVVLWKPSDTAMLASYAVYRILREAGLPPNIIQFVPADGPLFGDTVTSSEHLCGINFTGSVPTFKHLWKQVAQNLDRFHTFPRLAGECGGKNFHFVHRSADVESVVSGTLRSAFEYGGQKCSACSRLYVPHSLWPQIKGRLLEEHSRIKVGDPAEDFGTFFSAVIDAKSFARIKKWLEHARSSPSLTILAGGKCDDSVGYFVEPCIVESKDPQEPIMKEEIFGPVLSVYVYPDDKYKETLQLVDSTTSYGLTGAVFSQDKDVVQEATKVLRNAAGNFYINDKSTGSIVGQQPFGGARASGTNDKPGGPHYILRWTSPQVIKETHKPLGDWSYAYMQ
In words: AlDeLuc isoform selectivity assay. It counts as biochemical. The settings on record: 2 μM, pre-activated with HCl, 60 min room temperature. As for the experimental part: as §1, §2, §3

For the next test, the target named is T7, ALDH5A1 (Homo sapiens, UniProt P51649).
T7 construct: inferred from Ni-NTA purification; made in house; host or cells: E. coli BL21(DE3)
T7 sequence (P51649 48-535): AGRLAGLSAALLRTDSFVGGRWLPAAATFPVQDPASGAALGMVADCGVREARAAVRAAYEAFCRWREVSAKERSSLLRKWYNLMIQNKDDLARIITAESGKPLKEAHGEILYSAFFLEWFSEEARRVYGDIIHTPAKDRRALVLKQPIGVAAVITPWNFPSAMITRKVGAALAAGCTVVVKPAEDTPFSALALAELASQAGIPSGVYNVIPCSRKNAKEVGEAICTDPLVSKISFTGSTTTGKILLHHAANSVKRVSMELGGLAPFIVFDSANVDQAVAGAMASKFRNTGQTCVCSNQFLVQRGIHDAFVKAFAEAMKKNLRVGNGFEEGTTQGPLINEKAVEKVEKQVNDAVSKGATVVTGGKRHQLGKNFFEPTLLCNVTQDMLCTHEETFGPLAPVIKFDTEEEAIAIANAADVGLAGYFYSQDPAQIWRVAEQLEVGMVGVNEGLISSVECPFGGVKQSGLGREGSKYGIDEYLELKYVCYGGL
As to the kind of experiment: AlDeLuc isoform selectivity assay. It counts as biochemical. The settings on record: 2 μM, pre-activated with HCl, 60 min room temperature. The protocol: as §1, §2, §3

The subject of test [1] is mesenchymal stem cells (MSCs). As to the kind of experiment: AlDeLuc in mesenchymal stem cells, lysed and treated with luciferase. Format: cell-based. The settings on record: 20 μM, one hour, ~2.5×10^5 MSCs, lysed. The protocol: Testing commenced by incubating MSCs with AlDeLuc (20 μM). After one hour, the cells were lysed, treated with luciferase, and imaged. […] Moreover, we wanted to allow for any oxidized N,N-diethyl luciferin substrate to accumulate for the highest possible signal.

In the next test the test system is ALDH1A1 activity. In words: High-fat diet inflammatory model, orthotopic 4T1-Luc tumors, AlDeLuc imaging after L-NMMA. The settings on record: control group (water gavage), AlDeLuc 0.55 mg/kg, 40 min. It counts as in vivo, BALB/c mice. As for the experimental part: Finally, to examine how NO influences ALDH1A1 activity in vivo we placed BALB/c mice (female, 5-7 weeks old) on a high-fat diet for 40 weeks to induce an inflammatory response through elevated NO production. This period consists of a ˜20-week priming period prior to inoculation of the animals with 4T1-Luc cells at the mammary fat pad. At this point, the mice were randomized into two groups. The treatment group was administered L-NMMA (50 mg/kg), whereas the control group received water via oral gavage for 20 days. The day after the final treatment, mice from both conditions were treated systemically with AlDeLuc, and the bioluminescence was monitored (FIG. 5e). […] At the completion of the diet study, animals were sacrificed, and their tumors were excised for further immunohistochemical analysis.
Generation of an Orthotopic 4T1-Luc Breast Cancer Model for Diet Studies. Female BALB/c mice (˜6 weeks old) were inoculated with 4T1-Luc cells (50 μL of 1×10^5 cells in 1:1 v/v serum-free RPMI 1640 media and Matrigel) via subcutaneous injections into the mammary fat pad. Tumor volumes were measured using the caliper method every three days. Body weight was measured daily over the course of the experiment.

T4 sequence (P05091 18-517): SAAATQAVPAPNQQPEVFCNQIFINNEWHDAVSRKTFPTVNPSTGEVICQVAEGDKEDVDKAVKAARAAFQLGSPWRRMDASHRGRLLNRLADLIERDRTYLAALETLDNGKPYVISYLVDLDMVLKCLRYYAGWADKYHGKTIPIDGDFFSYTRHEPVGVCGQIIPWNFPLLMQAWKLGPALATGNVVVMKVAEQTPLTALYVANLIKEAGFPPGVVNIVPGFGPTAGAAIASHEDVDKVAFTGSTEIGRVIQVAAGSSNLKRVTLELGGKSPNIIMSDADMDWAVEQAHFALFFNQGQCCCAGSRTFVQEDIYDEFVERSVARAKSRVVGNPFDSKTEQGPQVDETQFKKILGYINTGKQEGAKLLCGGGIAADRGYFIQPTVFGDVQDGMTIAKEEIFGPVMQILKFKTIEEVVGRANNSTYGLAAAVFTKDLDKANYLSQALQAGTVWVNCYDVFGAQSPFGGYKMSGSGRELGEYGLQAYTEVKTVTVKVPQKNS
T2 sequence (O94788 whole entry): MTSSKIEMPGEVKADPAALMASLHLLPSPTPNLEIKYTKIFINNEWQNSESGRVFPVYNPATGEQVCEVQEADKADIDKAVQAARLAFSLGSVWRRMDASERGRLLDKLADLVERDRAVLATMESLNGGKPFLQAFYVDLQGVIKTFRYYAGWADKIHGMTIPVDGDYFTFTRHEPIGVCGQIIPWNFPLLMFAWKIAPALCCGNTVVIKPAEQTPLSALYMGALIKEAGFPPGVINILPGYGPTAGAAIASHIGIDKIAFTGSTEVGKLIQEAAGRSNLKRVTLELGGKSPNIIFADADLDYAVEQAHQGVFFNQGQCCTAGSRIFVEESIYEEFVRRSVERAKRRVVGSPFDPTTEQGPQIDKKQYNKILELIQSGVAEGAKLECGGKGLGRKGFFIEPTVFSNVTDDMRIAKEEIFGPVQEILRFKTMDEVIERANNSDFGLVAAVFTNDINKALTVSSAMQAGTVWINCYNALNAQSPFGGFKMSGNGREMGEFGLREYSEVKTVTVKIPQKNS

For `CCN(CC)c1ccc2nc(C3=N[C@@H](C(OC)OC)CS3)sc2c1` [AlDeLuc, (S)-2-(4-(dimethoxymethyl)-4,5-dihydrothiazol-2-yl)-N,N-diethylbenzo[d]thiazol-6-amine], the bioluminescence entry at ALDH1A1 was “significant bioluminescence”; at ALDH1A2, “only treatment with ALDH1A1 and luciferase generated significant bioluminescence”; at ALDH1A3 it was “only treatment with ALDH1A1 and luciferase generated significant bioluminescence”; on ALDH2 it was “only treatment with ALDH1A1 and luciferase generated significant bioluminescence”; at ALDH3A1, “only treatment with ALDH1A1 and luciferase generated significant bioluminescence”; on ALDH4A1 it was “only treatment with ALDH1A1 and luciferase generated significant bioluminescence”. Also, the bioluminescence entry at ALDH5A1 was “only treatment with ALDH1A1 and luciferase generated significant bioluminescence”. The “bioluminescence of treated cells” value in test [1] was “indistinguishable from blank controls”. Besides, the total luminescent counts with ALDH1A1 activity is given as 1.7±0.8×10^4.
